Results reported in patent EP0846114B1, “3-PYRIDYLOXYALKYL HETEROCYCLIC ETHER COMPOUNDS USEFUL IN CONTROLLING CHEMICAL SYNAPTIC TRANSMISSION” (priority 1995, dated 1996).
Structures can show the parent of a compound that is named as a salt. Where two headings read alike, the source gives them in different places.

Tests used:
[1] = tested on: Neuronal Nicotinic Cholinergic Channels in IMR-32 Cells; experiment: 86Rb+ efflux in IMR-32 cells (Protocol B); conditions: for IMR-32 maximal response: percent relative to the response elicited by 100 µM (S)-nicotine; for EC50: read-out: IMR-32 EC50, activation of 86Rb+ efflux, IMR-32 human neuroblastoma cells
Experimental: For the purpose of directly evaluating the ability of test compounds to functionally activate or inhibit certain subtypes of neuronal nicotinic cholinergic channels, an assay to determine ^86Rb^+ efflux in IMR-32 cells was employed (Protocol B below).
Experimental cells were seeded at a density of 500,000 cells/mL into a 24-well tissue culture dish. Plated cells were allowed to proliferate for at least 48 hours before loading with 2 µCi/mL of ^86Rb^+ (35 Ci/mmol) overnight at 37°C.

[2] = target: T1, neuronal nicotinic cholinergic channel receptors (Rattus norvegicus, UniProt P09483+P12390); experiment: [3H]-cytisine radioligand displacement binding (Protocol A)
T1 construct: crude synaptic membrane preparations from whole rat brain; from tissue; host or cells: whole rat brain, crude synaptic membranes
Experimental: Binding of [^3H]-cytisine ([^3H]-CYT) to nicotinic receptors was accomplished using crude synaptic membrane preparations from whole rat brain (Pabreza et al., Molecular Pharmacol., 1990, 39:9). Washed membranes were stored at -80°C prior to use. Frozen aliquots were slowly thawed and resuspended in 20 volumes of buffer (containing: 120 mM NaCl, 5 mM KCl, 2 mM MgCl2, 2 mM CaCl2 and 50 mM Tris-Cl, pH 7.4 @4°C). After centrifuging at 20,000x g for 15 minutes, the pellets were resuspended in 30 volumes of buffer. Homogenate (containing 125-150 µg protein) was added to triplicate tubes containing concentrations of test compound and [^3H]-CYT (1.25 nM) in a final volume of 500 µL. Samples were incubated for 60 minutes at 4°C, then rapidly filtered through Whatman GF/B filters presoaked in 0.5% polyethyleneimine using 3 x 4 mL of ice-cold buffer. The filters are counted in 4 mL of Ecolume® (ICN). […] Alternately, data were expressed as a percentage of the total specific binding.

[3] = displacement of [3H]-CYT (1.25 nM), crude synaptic membranes from whole rat brain, IC50 converted to Ki (Cheng and Prusoff), read-out: Binding
[4] = inhibition of the efflux elicited by 100 µM (S)-nicotine, single dose 1 µM
[5] = inhibition of the efflux elicited by 100 µM (S)-nicotine, single dose 10 µM

T1 sequence (P09483 31-630): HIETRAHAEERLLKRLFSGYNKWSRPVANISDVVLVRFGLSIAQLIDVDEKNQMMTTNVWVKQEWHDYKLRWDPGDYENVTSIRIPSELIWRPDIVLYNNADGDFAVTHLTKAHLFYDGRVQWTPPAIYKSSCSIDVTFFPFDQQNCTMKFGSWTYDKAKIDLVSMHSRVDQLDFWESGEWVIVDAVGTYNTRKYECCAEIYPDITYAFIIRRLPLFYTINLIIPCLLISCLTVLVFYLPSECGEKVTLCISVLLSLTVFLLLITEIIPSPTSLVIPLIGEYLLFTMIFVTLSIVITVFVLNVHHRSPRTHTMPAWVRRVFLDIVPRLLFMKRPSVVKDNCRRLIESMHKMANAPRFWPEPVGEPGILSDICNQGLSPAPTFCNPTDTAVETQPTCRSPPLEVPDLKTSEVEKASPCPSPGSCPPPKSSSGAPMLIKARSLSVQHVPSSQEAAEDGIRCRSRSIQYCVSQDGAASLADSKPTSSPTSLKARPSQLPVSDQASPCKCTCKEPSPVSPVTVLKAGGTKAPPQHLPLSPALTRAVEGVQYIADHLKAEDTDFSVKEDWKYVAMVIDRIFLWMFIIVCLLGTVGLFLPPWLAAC
T1 sequence (P12390 25-500): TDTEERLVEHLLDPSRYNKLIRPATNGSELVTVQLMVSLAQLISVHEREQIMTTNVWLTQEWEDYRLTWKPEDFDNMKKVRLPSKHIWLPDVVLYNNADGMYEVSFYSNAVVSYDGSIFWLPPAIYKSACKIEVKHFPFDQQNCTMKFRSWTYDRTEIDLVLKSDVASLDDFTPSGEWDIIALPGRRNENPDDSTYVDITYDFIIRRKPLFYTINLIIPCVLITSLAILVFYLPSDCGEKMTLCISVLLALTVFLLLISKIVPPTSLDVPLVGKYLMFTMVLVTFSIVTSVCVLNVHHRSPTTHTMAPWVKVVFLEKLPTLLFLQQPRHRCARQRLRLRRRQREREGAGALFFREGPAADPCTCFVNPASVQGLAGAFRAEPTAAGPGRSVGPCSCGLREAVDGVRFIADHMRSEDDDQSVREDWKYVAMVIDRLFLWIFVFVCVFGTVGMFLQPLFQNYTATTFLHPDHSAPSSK

Compound | IMR-32 maximal response [1] [%] | EC50 [1] [nM] | Ki [2, 3] [nM] | Ki [2] [nM] | % Inhibition @ 1 µM [1] [%] | % Inhibition @ 1 µM [1, 4] [%] | % Inhibition @ 10 µM [1, 5] [%] | % Inhibition @ 10 µM [1] [%]
NC(=O)c1cc(OC[C@@H]2CCN2)cnc1Cl [Example 51, hydrochloride] | 64 | 16000 | 0.19 | – | – | – | – | –
CCc1cc(OC[C@@H]2CCCN2)cnc1Cl.Cl [Example 46, 5-Ethyl-6-chloro-3-(2-(S)-pyrrolidinylmethoxy)pyridine hydrochloride] | 11 | – | 0.6 | – | – | – | – | –
Cl.Cl.Clc1ncc(OC[C@H]2CCCN2)cc1Br [Example 7, 5-bromo-6-chloro-3-(2-(R)-pyrrolidinylmethoxy)pyridine dihydrochloride] | 70 | 4900 | – | 0.099 | – | – | – | –
CN1CC[C@H]1COc1cnc(Cl)c(Cl)c1.Cl [Example 16, 5,6-dichloro-3-(1-methyl-2-(S)-azetidinylmethoxy)pyridine hydrochloride] | 37 | 500 | 0.7 | – | 35 | – | – | –
CN1CCC[C@@H]1COc1cnc(Cl)c(Br)c1.Cl [Example 8, 5-bromo-6-chloro-3-(1-methyl-2-(R)-pyrrolidinylmethoxy)pyridine hydrochloride] | 10.6 | – | – | 13 | – | 28 | 60 | –
CN1CCC[C@@H]1COc1cnc(Cl)c(Cl)c1.Cl [Example 10, 5,6-Dichloro-3-(1-methyl-2-(R)-pyrrolidinylmethoxy)pyridine hydrochloride] | 3.3 | – | 20 | – | 18 | – | – | 90
Cl.Clc1cc(OC[C@H]2CCN2)cnc1Cl [Example 17, 5,6-dichloro-3-(2-(R)-azetidinylmethoxy)pyridine hydrochloride] | 108 | 200 | – | 0.06 | – | – | – | –
Cl.Clc1cc(OC[C@H]2CCCN2)cnc1Cl [Example 9, 5,6-Dichloro-3-(2-(R)-pyrrolidinylmethoxy)pyridine hydrochloride] | 67 | 1600 | 0.03 | – | – | – | – | –
Cc1ncc(OC[C@@H]2CCN2)cc1Br.Cl [Example 52, 5-bromo-6-methyl-3-(2-(S)-azetidinylmethoxy)pyridine hydrochloride] | 124 | 1600 | – | – | – | – | – | –
Cl.N#Cc1cc(OC[C@@H]2CCN2)cnc1Cl [Example 49, 5-Cyano-6-chloro-3-(2-(S)-azetidinylmethoxy)pyridine hydrochloride] | 158 | 290 | 0.097 | – | – | – | – | –
Cl.Clc1cc(OC[C@@H]2CCCN2)cnc1Cl [Example 11, 5,6-Dichloro-3-(2-(S)-pyrrolidinylmethoxy)pyridine hydrochloride] | 93 | 600 | 0.029 | – | – | – | – | –
CN1CCC[C@H]1COc1cnc(Cl)c(Cl)c1.Cl [Example 12, 5,6-Dichloro-3-(1-methyl-2-(S)-pyrrolidinylmethoxy)pyridine hydrochloride] | 16 | – | 0.11 | – | 5 | – | – | 8
CN1CC[C@H]1COc1cnc(Cl)c(Br)c1.Cl [Example 3, 5-Bromo-6-chloro-3-(1-methyl-2-(S)-azetidinylmethoxy)pyridine hydrochloride] | – | – | 0.38 | – | 55 | – | – | –
CN1CCC[C@H]1COc1cnc(Cl)c(Br)c1.Cl.Cl [Example 5, 5-Bromo-6-chloro-3-(1-methyl-2-(S)-pyrrolidinylmethoxy)pyridine dihydrochloride] | 12 | – | – | 0.35 | – | 12 | 22 | –
CCc1cc(OC[C@@H]2CCN2)cnc1Cl.Cl [Example 45, 5-Ethyl-6-chloro-3-(2-(S)-azetidinylmethoxy)pyridine hydrochloride] | 137 | 400 | – | 0.04 | – | – | – | –
CN1CC[C@@H]1COc1cnc(Cl)c(Cl)c1.Cl [Example 18, 5,6-dichloro-3-(1-methyl-2-(R)-azetidinylmethoxy)pyridine hydrochloride] | 22.5 | – | 2.4 | – | 0 | – | – | 18
Cl.Clc1ncc(OC[C@@H]2CCN2)cc1Br [Example 2, 5-Bromo-6-chloro-3-(2-(S)-azetidinylmethoxy)pyridine hydrochloride] | 120 | 100 | – | – | – | – | – | –
5-Ethyl-6-chloro-3-(1-methyl-2-(S)-pyrrolidinylmethoxy)pyridine hydrochloride [Example 47] | 152 | 22000 | 0.065 | – | – | – | – | –
CCc1cc(OC[C@H]2CCCN2)cnc1Cl.Cl [Example 48, 5-Ethyl-6-chloro-3-(2-(R)-pyrrolidinylmethoxy)pyridine hydrochloride] | 129 | 56000 | 0.027 | – | – | – | – | –
Cl.Clc1cc(OC[C@@H]2CCN2)cnc1Cl [Example 15, 5,6-dichloro-3-(2-(S)-azetidinylmethoxy)pyridine hydrochloride] | 152 | 300 | – | – | – | – | – | –
CN1CC[C@H]1COc1cnc(Cl)c(C#N)c1.Cl [Example 50, 5-Cyano-6-chloro-3-(1-methyl-2-(S)-azetidinylmethoxy)pyridine hydrochloride] | 35 | 10000 | 0.88 | – | – | – | – | –
